Data as given in patent US11702429B2, “mTORC modulators and uses thereof” (Aeovian Pharmaceuticals, Inc., priority 2019, dated 2023).
Where two headings read alike, the source gives them in different places.

Tests used:
[1] = biological target: T1, mTORC1 (Homo sapiens, UniProt P42345+P62942); assay: Inhibition assay for mTORC1: phosphorylation of pS6K at Thr389, AlphaLISA in PC3 cells; type: cell-based; conditions: for IC50: read-out: pIC50 mTORC1 (converted)
T1 construct: endogenous in cells; host or cells: PC3 cells (human prostate adenocarcinoma)
Protocol: (§1) The IC50s of the inhibition of mTORC1 and mTORC2 were determined in vitro by determining the phosphorylation of pS6K at position Thr389 (mTORC1 inhibition) and pAkt at Ser473 (mTORC2 inhibition). In vitro studies were performed with AlphaLISA® technology using PC3 cells (Prostate Adenocarcinoma; Human (Homo sapiens)). The cells were seeded in 96 well plates and were treated for 24 hours with the different compounds. […] All analysis were performed using GraphPad Prism 7.0 (GraphPad Software, San Diego, USA).

[2] = biological target: T2, mTORC2 (Homo sapiens, UniProt P42345+P62942); assay: Inhibition assay for mTORC2: phosphorylation of pAkt at Ser473, AlphaLISA in PC3 cells; type: cell-based; conditions: for IC50: read-out: pIC50 mTORC2 (converted)
T2 construct: endogenous in cells; host or cells: PC3 cells (human prostate adenocarcinoma)
Protocol: as §1

[3] = PC3 cells, treated 24 hours, pS6K Thr389, AlphaLISA, C16 diastereomer mixtures not separated
[4] = PC3 cells, treated 24 hours, pAkt Ser473, AlphaLISA, C16 diastereomer mixtures not separated

T2 sequence (P62942 2-108 limits assumed, other chains not shown): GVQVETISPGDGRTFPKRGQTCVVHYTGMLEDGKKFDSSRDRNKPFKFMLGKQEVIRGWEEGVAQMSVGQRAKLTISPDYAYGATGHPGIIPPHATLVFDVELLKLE

SMILES	IC50 [1] [nM]	IC50 [2] [nM]	further results
COC1C[C@@H]2CC[C@@H](C)[C@@](O)(O2)C(=O)C(=O)N2CCCCC2C(=O)O[C@H]([C@H](C)C[C@@H]2CC[C@@H](OC(=O)NCCN3CCN(C)CC3)[C@H](OC)C2)CC(=O)[C@H](C)/C=C(\C)[C@@H](O)[C@@H](OC)C(=O)[C@H](C)C[C@H](C)/C=C/C=C/C=C/1C (stereo partly shown) [Compound 367]	< 0.316	< 1000	–
CO[C@@H]1C[C@H](C[C@@H](C)[C@@H]2CC(=O)[C@H](C)/C=C(\C)[C@@H](O)[C@@H](OC)C(=O)[C@H](C)C[C@H](C)/C=C/C=C/C=C(\C)C(OCCO)C[C@@H]3CC[C@@H](C)[C@@](O)(O3)C(=O)C(=O)N3CCCCC3C(=O)O2)CC[C@H]1OCCCN1C[C@@H](C)O[C@@H](C)C1 (stereo partly shown) [Compound 18]	–	–	pIC50 mTORC1 [1, 3]: A (pIC50 for mTORC1 of >9.5 as A); pIC50 mTORC2 [2, 4]: A (PIC50 for mTORC2 of <5 as A)
COC1C[C@@H]2CC[C@@H](C)[C@@](O)(O2)C(=O)C(=O)N2CCCCC2C(=O)O[C@H]([C@H](C)C[C@@H]2CC[C@@H](OCCN3CCC(O)CC3)[C@H](OC)C2)CC(=O)[C@H](C)/C=C(\C)[C@@H](O)[C@@H](OC)C(=O)[C@H](C)C[C@H](C)/C=C/C=C/C=C/1C (stereo partly shown) [Compound 353]	< 0.316	< 1000	–
CO[C@@H]1C[C@H](C[C@@H](C)[C@@H]2CC(=O)[C@H](C)/C=C(\C)[C@@H](O)[C@@H](OC)C(=O)[C@H](C)C[C@H](C)/C=C/C=C/C=C(\C)C(OCCO)C[C@@H]3CC[C@@H](C)[C@@](O)(O3)C(=O)C(=O)N3CCCC[C@H]3C(=O)O2)CC[C@H]1OCCCN1CC2(COC2)C1 (mixture of isomers) [Compound 78]	–	–	IC50 [1, 3]: 0.316 to 3.16 nM; IC50 [2, 4]: > 10000 nM
COCCCOC1C[C@@H]2CC[C@@H](C)[C@@](O)(O2)C(=O)C(=O)N2CCCCC2C(=O)O[C@H]([C@H](C)C[C@@H]2CC[C@@H](O)[C@H](OC)C2)CC(=O)[C@H](C)/C=C(\C)[C@@H](O)[C@@H](OC)C(=O)[C@H](C)C[C@H](C)/C=C/C=C/C=C/1C (stereo partly shown) [Compound 225]	< 0.316	1000 to 10000	–
CO[C@@H]1C[C@H](C[C@@H](C)[C@@H]2CC(=O)[C@H](C)/C=C(\C)[C@@H](O)[C@@H](OC)C(=O)[C@H](C)C[C@H](C)/C=C/C=C/C=C(\C)C(OCCCO)C[C@@H]3CC[C@@H](C)[C@@](O)(O3)C(=O)C(=O)N3CCCCC3C(=O)O2)CC[C@H]1O (stereo partly shown) [Compound 210]	0.316 to 3.16	< 1000	–
COCCO[C@@H]1CC[C@@H](C[C@@H](C)[C@@H]2CC(=O)[C@H](C)/C=C(\C)[C@@H](O)[C@@H](OC)C(=O)[C@H](C)C[C@H](C)/C=C/C=C/C=C(\C)C(OC)C[C@@H]3CC[C@@H](C)[C@@](O)(O3)C(=O)C(=O)N3CCCCC3C(=O)O2)C[C@H]1OC (stereo partly drawn) [Compound 315, (1R,9S,12S,15R,16E,18R,19R,21R,23S,24E,26E,28E,30S,32S,35R)-1,18-dihydroxy-19,30-dimethoxy-12-[(1R)-2-[(1S,3R,4R)-3-methoxy-4-(2-methoxyethoxy)cyclohexyl]-1-methyl-ethyl]-15,17,21,23,29,35-hexamethyl-11,36-dioxa-4-azatricyclo[30.3.1.0^4,9]hexatriaconta-16,24,26,28-tetraene-2,3,10,14,20-pentone]	< 0.316	< 1000	–
CO[C@@H]1C[C@H](C[C@@H](C)[C@@H]2CC(=O)[C@H](C)/C=C(\C)[C@@H](O)[C@@H](OC)C(=O)[C@H](C)C[C@H](C)/C=C/C=C/C=C(\C)C(OC(C)C)C[C@@H]3CC[C@@H](C)[C@@](O)(O3)C(=O)C(=O)N3CCCCC3C(=O)O2)CC[C@H]1O (stereo partly drawn) [Compound 208, (1R,9S,12S,15R,16E,18R,19R,21R,23S,24E,26E,28E,32S,35R)-1,18-dihydroxy-12-[(1R)-2-[(1S,3R,4R)-4-hydroxy-3-methoxy-cyclohexyl]-1-methyl-ethyl]-30-isopropoxy-19-methoxy-15,17,21,23,29,35-hexamethyl-11,36-dioxa-4-azatricyclo[30.3.1.0^4,9]hexatriaconta-16,24,26,28-tetraene-2,3,10,14,20-pentone]	0.316 to 3.16	1000 to 10000	–
COC1C[C@@H]2CC[C@@H](C)[C@@](O)(O2)C(=O)C(=O)N2CCCCC2C(=O)O[C@H]([C@H](C)C[C@@H]2CC[C@@H](OC(=O)N(C)CCN(C)C)[C@H](OC)C2)CC(=O)[C@H](C)/C=C(\C)[C@@H](O)[C@@H](OC)C(=O)[C@H](C)C[C@H](C)/C=C/C=C/C=C/1C (stereo partly shown) [Compound 359]	< 0.316	< 1000	–
CO[C@@H]1C[C@H](C[C@@H](C)[C@@H]2CC(=O)[C@H](C)/C=C(\C)[C@@H](O)[C@@H](OC)C(=O)[C@H](C)C[C@H](C)/C=C/C=C/C=C(\C)C(SC(C)C)C[C@@H]3CC[C@@H](C)[C@@](O)(O3)C(=O)C(=O)N3CCCCC3C(=O)O2)CC[C@H]1O (stereo partly shown) [Compound 201]	> 3.16	1000 to 10000	–
CO[C@@H]1C[C@H](C[C@@H](C)[C@@H]2CC(=O)[C@H](C)/C=C(\C)[C@@H](O)[C@@H](OC)C(=O)[C@H](C)C[C@H](C)/C=C/C=C/C=C(\C)C(OC[C@@H](C)O)C[C@@H]3CC[C@@H](C)[C@@](O)(O3)C(=O)C(=O)N3CCCCC3C(=O)O2)CC[C@H]1O (stereo partly shown) [Compound 223]	0.316 to 3.16	> 10000	–
COC1CC2CCC(C)C(O)(O2)C(=O)C(=O)N2CCCCC2C(=O)OC(C(C)CC2CCC(OC(=O)C3(C)COC(C)(C)OC3)C(OC)C2)CC(=O)C(C)C=C(C)C(O)C(OC)C(=O)C(C)CC(C)C=CC=CC=C1C (stereo not shown) [Compound 309]	< 0.316	< 1000	–
CO[C@H](COC1C[C@@H]2CC[C@@H](C)[C@@](O)(O2)C(=O)C(=O)N2CCCCC2C(=O)O[C@H]([C@H](C)C[C@@H]2CC[C@@H](O)[C@H](OC)C2)CC(=O)[C@H](C)/C=C(\C)[C@@H](O)[C@@H](OC)C(=O)[C@H](C)C[C@H](C)/C=C/C=C/C=C/1C)c1ccccc1 (stereo partly shown) [Compound 206]	0.316 to 3.16	1000 to 10000	–
COC1C[C@@H]2CC[C@@H](C)[C@@](O)(O2)C(=O)C(=O)N2CCCCC2C(=O)O[C@H]([C@H](C)C[C@@H]2CC[C@@H](OC(=O)NCCCN3CCOCC3)[C@H](OC)C2)CC(=O)[C@H](C)/C=C(\C)[C@@H](O)[C@@H](OC)C(=O)[C@H](C)C[C@H](C)/C=C/C=C/C=C/1C (stereo partly shown) [Compound 344]	< 0.316	< 1000	–
COC1C[C@@H]2CC[C@@H](C)[C@@](O)(O2)C(=O)C(=O)N2CCCCC2C(=O)O[C@H]([C@H](C)C[C@@H]2CC[C@@H](OC(=O)NCCn3cnnn3)[C@H](OC)C2)CC(=O)[C@H](C)/C=C(\C)[C@@H](O)[C@@H](OC)C(=O)[C@H](C)C[C@H](C)/C=C/C=C/C=C/1C (stereo partly shown) [Compound 312]	< 0.316	< 1000	–
COC1C[C@@H]2CC[C@@H](C)[C@@](O)(O2)C(=O)C(=O)N2CCCCC2C(=O)O[C@H]([C@H](C)C[C@@H]2CC[C@@H](OCCCN(C)C)[C@H](OC)C2)CC(=O)[C@H](C)/C=C(\C)[C@@H](O)[C@@H](OC)C(=O)[C@H](C)C[C@H](C)/C=C/C=C/C=C/1C (stereo partly drawn) [Compound 363, (1R,9S,12S,15R,16E,18R,19R, 21R,23S,24E,26E,28E,30S,32S,35R)-12-[(1R)-2-[(1S,3R,4R)-4-[3-(dimethylamino)propoxy]-3-methoxy-cyclohexyl]-1-methyl-ethyl]-1,18-dihydroxy-19,30-dimethoxy-15,17,21,23,29,35-hexamethyl-11,36-dioxa-4-azatricyclo[30.3.1.0^4,9]hexatriaconta-16,24,26,28-tetraene-2,3,10,14,20-pentone]	< 0.316	< 1000	–
COC1C[C@@H]2CC[C@@H](C)[C@@](O)(O2)C(=O)C(=O)N2CCCCC2C(=O)O[C@H]([C@H](C)C[C@@H]2CC[C@@H](OCCCCN3CCOCC3)[C@H](OC)C2)CC(=O)[C@H](C)/C=C(\C)[C@@H](O)[C@@H](OC)C(=O)[C@H](C)C[C@H](C)/C=C/C=C/C=C/1C (stereo partly shown) [Compound 300]	< 0.316	< 1000	–
CO[C@@H]1C[C@H](C[C@@H](C)[C@@H]2CC(=O)[C@H](C)/C=C(\C)[C@@H](O)[C@@H](OC)C(=O)[C@H](C)C[C@H](C)/C=C/C=C/C=C(\C)C(c3cccn3C)C[C@@H]3CC[C@@H](C)[C@@](O)(O3)C(=O)C(=O)N3CCCCC3C(=O)O2)CC[C@H]1O (stereo partly shown) [Compound 212]	0.316 to 3.16	1000 to 10000	–
COC1C[C@@H]2CC[C@@H](C)[C@@](O)(O2)C(=O)C(=O)N2CCCCC2C(=O)O[C@H]([C@H](C)C[C@@H]2CC[C@@H](OC(=O)NCCc3c[nH]cn3)[C@H](OC)C2)CC(=O)[C@H](C)/C=C(\C)[C@@H](O)[C@@H](OC)C(=O)[C@H](C)C[C@H](C)/C=C/C=C/C=C/1C (stereo partly shown) [Compound 364]	< 0.316	< 1000	–
COC1C[C@@H]2CC[C@@H](C)[C@@](O)(O2)C(=O)C(=O)N2CCCCC2C(=O)O[C@H]([C@H](C)C[C@@H]2CC[C@@H](OC(=O)N(C)CCO)[C@H](OC)C2)CC(=O)[C@H](C)/C=C(\C)[C@@H](O)[C@@H](OC)C(=O)[C@H](C)C[C@H](C)/C=C/C=C/C=C/1C (stereo partly shown) [Compound 313]	< 0.316	< 1000	–
